Values joined by “and” are separate entries in the source; they are usually repeats but may differ in a detail not shown here. Equal values may be shown once. Read-outs that look alike come from different tables or passages of the source.
Legend:
[1] = mouse, in vivo
[2] = tested on: subcutaneously transplanted human liver cancer LM3 tumor; design: species or system BALB/c nude mice; conditions: mouse, in vivo
[3] = tested on: subcutaneously transplanted human liver cancer LM3 tumor; design: species or system BALB/c nude mice; conditions: mouse, in vivo, ip
[4] = mouse, in vivo, ip

Question: For `O=P1(N(CCCl)CCCl)NCCCO1` (centres unmarked) [cyclophosphamide], which “Spleen quality” value [1] is on record?
Answer: 0.12 ± 0.02 g

Question: What about the “body weight at the end of the experiment” value [1] of the same molecule?
Answer: 18.91 ± 0.46 g

Question: What about the “Tumor inhibition rate (%)” value [2] of the same molecule?
Answer: 79.33% and 79.33 ± 0.10%

Question: And the “Tumor weight” value [2]?
Answer: 0.21 ± 0.10 g

Question: And the “Tumor inhibition rate (%)” value ([3]; 10 mg/kg)?
Answer: 33.21% and 33.21 ± 1.41%

Question: And the “Tumor weight” value ([3]; 10 mg/kg)?
Answer: 0.50 ± 0.02 g

Question: And the “Tumor inhibition rate (%)” value ([3]; 20 mg/kg)?
Answer: 62.67% and 62.67 ± 5.81%

Question: What about the “Tumor weight” value ([3]; 20 mg/kg) of the same molecule?
Answer: 0.28 ± 0.06 g

Question: And the “Spleen index” value ([4]; 10 mg/kg)?
Answer: 1.08 ± 0.12 mg/g

Question: And the “Spleen quality” value ([4]; 10 mg/kg)?
Answer: 0.19 ± 0.01 g

Question: What about the “body weight at the end of the experiment” value ([4]; 10 mg/kg) of the same molecule?
Answer: 18.58 ± 0.41 g

Question: What about the “Spleen index” value ([4]; 20 mg/kg) of the same molecule?
Answer: 1.01 ± 0.08 mg/g

Question: What about the “Spleen quality” value ([4]; 20 mg/kg) of the same molecule?
Answer: 0.17 ± 0.01 g

Question: What about the “body weight at the end of the experiment” value ([4]; 20 mg/kg) of the same molecule?
Answer: 17.54 ± 0.28 g
